Experimental data published in patent US8715628B1, “Cosmetic compositions and methods for inhibiting or reducing trypsin activity” (The Procter & Gamble Company, priority 2011, dated 2014).
Several values for one entry are separate records, joined by “and”; a condition that tells them apart may be missing. Equal values may be shown once.

Biological target: T1, Trypsin from a bovine pancreas (Bos taurus, UniProt P00760)
T1 construct: Trypsin from a bovine pancreas; purchased Sigma-Aldrich T8802; host or cells: bovine pancreas (tissue-derived)
T1 sequence (P00760 24-246): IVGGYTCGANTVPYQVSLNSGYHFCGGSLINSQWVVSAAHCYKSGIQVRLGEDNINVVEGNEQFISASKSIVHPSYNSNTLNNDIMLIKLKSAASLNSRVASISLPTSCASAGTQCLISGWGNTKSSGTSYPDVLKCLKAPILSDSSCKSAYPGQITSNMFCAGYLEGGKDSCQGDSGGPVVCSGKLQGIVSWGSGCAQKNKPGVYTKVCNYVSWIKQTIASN
Test: Trypsin assay (fluorogenic substrate Z-Phe-Arg-7-amido-4-methylcoumarin, kinetic slope vs vehicle control)
Assay type: biochemical
Conditions: single-well values, n=8 wells
Experimental: Trypsin from a bovine pancreas (available from Sigma-Aldrich, USA, Catalog #T8802) is diluted in phosphate buffered saline (PBS) to make a stock of about 0.001% trypsin. In a 96 well white plate with clear bottom (e.g., Corning Costar #3904 available from _VWR International, LLC, Pennsylvania, USA), about 90 uL of 0.001% trypsin stock is mixed with about 10 uL of a test compound (e.g., N-undecylenoyl-L-phenylalanine) or vehicle control, such as dimethyl sulfoxide (DMSO) or water. Typically, there are 8 control wells per plate. The assay is initiated by the addition of 100 uL of the substrate, Z-Phe-Arg-7-amido-4-methylcoumarin (e.g., Calbiochem Catalog #03-32-1501-10 mM in PBS available from Life Technologies, California, USA) and the well plate is monitored in a fluorescent plate reader (e.g., a Gemini plate reader) with an excitation wavelength of 360 nm and an emission wavelength of 460 nm. The reaction progress is measured in a kinetic mode for 5 minutes. SoftMaxPro Data Analysis Software (available from Molecular Devices, Inc.) is used to fit a line to the data points for each well, and the slopes of the lines are then calculated. The slopes of each test compound well are compared to the average of the slopes of the vehicle control wells of a plate to determine the percentage of trypsin activity using equation (1) below. As the trypsin hydrolyzes the substrate, the fluorescence of the 7-amido-coumarin group increases, causing a growth in the signal which reflects the level of trypsin activity. An inhibitor attenuates the fluorescence growth resulting in a smaller slope. Percent(%)trypsin activity=[slope of test well]/[average slope of vehicle control wells] (1)
Using generally the method outlined above, the percentage of trypsin activity was measured for 1:900 dilution of 1% N-undecylenoyl-L-phenylalanine, 3% myo-inositol, 5% niacinamide, and 5% hexyldecanol using a sample size of n=8 wells for each compound. […]

SMILES: CCCCCCCCC(CO)CCCCCC (stereo not shown) [Hexyldecanol, 2-Hexyldecan-1-ol]
- % Activity (percentage of trypsin activity) (1:900 dilution of 5% hexyldecanol): 87.1% and 90.7% and 85.7% and 100.0% and 112.4% and 112.0% and 88.7% and 95.4%

SMILES: O[C@H]1[C@H](O)[C@@H](O)[C@H](O)[C@@H](O)[C@H]1O [Myo-Inositol, myo-inositol]
- % Activity (percentage of trypsin activity) (1:900 dilution of 3% myo-inositol): 93.8% and 112.4% and 101.4% and 108.9% and 108.0% and 121.4% and 95.6% and 109.2%

SMILES: NC(=O)c1cccnc1 [Niacinamide, niacinamide]
- % Activity (percentage of trypsin activity) (1:900 dilution of 5% niacinamide): 106.0% and 91.8% and 91.3% and 107.7% and 111.1% and 109.1% and 93.9% and 88.7%

SMILES: C=CCCCCCCCCC(=O)N[C@@H](Cc1ccccc1)C(=O)O [N-undecylenoyl-L-phenylalanine]
- % Activity (percentage of trypsin activity) (1:900 dilution of 1% N-undecylenoyl-L-phenylalanine, >100% up-regulation, <100% inhibition): 91.4% and 104.9% and 97.2% and 100.5% and 121.8% and 116.3% and 79.9% and 99.8%
